From US20200189989A1, “APPLICATION OF SYRINGIC ACID IN PROMOTING NITRIFICATION INHIBITION ACTIVITY OF DECANEDIOL” (Institute of Soil Science, Chinese Academy of Sciences, priority 2018, published 2020)

Key:
Assay type in all cases: cell-based
[1] = tested on: Nitrosomonas stercoris (NBRC 110753); experiment: Nitrification activity inhibition experiment, Nitrosomonas stercoris (NO2- production, improved Griess method); conditions: 2 hours, 25° C., dark
Description: Nitrification activity inhibition experiment: The bacterial solution cultured for 7 days was collected, centrifuged at 5000 g for 20 min, and resuspended in a fresh and sterile HEPES medium until the OD600 reached about 1.0, with a concentration multiple of 40-50 times. Taken was a 1.5 mL sterile centrifuge tube, and it was sequentially added with 195 μL of sterile water, 5 μL of different concentrations of solutions of syringic acid and 1,9-decanediol in DMSO, 100 μL of the fresh and sterile HEPES medium, and 200 μL of a resuspended bacterial solution, and then cultured in a water bath at 25° C. under a dark condition for 2 hours. Then the mixed system was added with 20 μL of 0.1M Allylthiourea to terminate the nitrosification. […] of the reacted mixture was added into a 10 mL colorimetric tube, diluted to about 5 mL with deionized water, added with 1 mL of a sulfanilic acid solution, shaken well and then subjected to standing for 2-8 min, then added with 1 mL of a hydrochloric acid N-(1-naphthyl)-ethylenediamine solution, shaken well, diluted to 10 mL with water to obtain a constant volume. Deionized water was used as a reference, and the absorbances were determined at a wavelength of 540 nm. The reticle of NO2^− was made in the same manner to quantify the NO2^− generated in the sample system, and the sample inhibition rate was calculated by the following formula. This determination method was an improved Griess method, which could be referred to the national standard “determination of nitrite in the wet precipitation -N-(1-naphthyl)-1,2-diaminoethane spectrophotometry”. Nitrosification inhibition rate (%)=(1-the produced amount of NO2^− of the sample/the produced amount of NO2^− of a blank)×100% The selection and formulation of the standard were the same as those of Embodiment 1. Microbial Strains: Nitrosomonas stercoris (NBRC 110753) was purchased from Biological Resource Center, NITE, Japan. The microbial culture medium and microbial culture were the same as those of Embodiment 1. Nitrification activity inhibition experiment: The bacterial solution of Nitrosomonas stercoris cultured for 7 days was collected, centrifuged at 5000 g for 20 min, and resuspended in a fresh and sterile HEPES medium until the OD600 reached about 1.0, with a concentration multiple of 40-50 times. Taken was a 1.5 mL sterile centrifuge tube, and it was sequentially added with 195 μL of sterile water, 5 μL of different concentrations of solutions of syringic acid and 1,9-decanediol in DMSO, 100 μL of the fresh and sterile HEPES medium, and 200 μL of a resuspended bacterial solution, and then cultured in a water bath at 25° C. under a dark condition for 2 hours. Then the mixed system was added with 20 μL of 0.1M Allylthiourea to terminate the nitrosification. […]

[2] = tested on: Nitrosomonas europaea (NBRC 14298); experiment: Nitrification activity inhibition experiment, Nitrosomonas europaea (NO2- production, improved Griess method); conditions: 2 hours, 25° C., dark
Description: Standard: a syringic acid standard was purchased from Sigma-Aldrich (St. Louis, Mo., USA), and the solid powder thereof was weighed and dissolved in DMSO. A 1,9-decanediol standard was purchased from WuXi AppTec, and the solid powder thereof was dissolved in DMSO while frozen over the dry ice (the 1,9-decanediol standard was a viscous liquid substance under normal temperature). Microbial strains: Nitrosomonas europaea (NBRC 14298) was purchased from Biological Resource Center, NITE, Japan. Microbial culture medium: a HEPES medium, which contained 2.5 g of (NH4)2SO4, 0.5 g of KH2PO4, 11.92 g of HEPES, 0.5 g of NaHCO3, 100 mg of MgSO4.7H2O, 5 mg of CaCl2.2H2O, and 75 mg of Fe-EDTA per 1 L liquid medium, at pH 7.8-8.0. Culture of microorganisms: Nitrosomonas europaea was inoculated in the HEPES medium and cultured at 30° C. and 200 rpm under a dark condition (aerobic), and the Nitrosomonas europaea enters a stable period 7-9 days after transfer each time. Nitrification activity inhibition experiment: The bacterial solution cultured for 7 days was collected, centrifuged at 5000 g for 20 min, and resuspended in a fresh and sterile HEPES medium until the OD600 reached about 1.0, with a concentration multiple of 40-50 times. Taken was a 1.5 mL sterile centrifuge tube, and it was sequentially added with 195 μL of sterile water, 5 μL of different concentrations of solutions of syringic acid and 1,9-decanediol in DMSO, 100 μL of the fresh and sterile HEPES medium, and 200 μL of a resuspended bacterial solution, and then cultured in a water bath at 25° C. under a dark condition for 2 hours. Then the mixed system was added with 20 μL of 0.1M Allylthiourea to terminate the nitrosification. […] of the reacted mixture was added into a 10 mL colorimetric tube, diluted to about 5 mL with deionized water, added with 1 mL of a sulfanilic acid solution, shaken well and then subjected to standing for 2-8 min, then added with 1 mL of a hydrochloric acid N-(1-naphthyl)-ethylenediamine solution, shaken well, diluted to 10 mL with water to obtain a constant volume. Deionized water was used as a reference, and the absorbances were determined at a wavelength of 540 nm. The reticle of NO2^− was made in the same manner to quantify the NO2^− generated in the sample system, and the sample inhibition rate was calculated by the following formula. This determination method was an improved Griess method, which could be referred to the national standard “determination of nitrite in the wet precipitation -N-(1-naphthyl)-1,2-diaminoethane spectrophotometry”. Nitrosification inhibition rate (%)=(1-the produced amount of NO2^− of the sample/the produced amount of NO2^− of a blank)×100%

Nitrosomonas = experiment: Nitrosification inhibition activity of syringic acid alone and as promoter of 1,9-decanediol (summary statement)
Excerpt: The root exudates of 19 rice varieties are collected, concentrated, and determined for their nitrosification inhibition activities by using Nitrosomonas europaea. The varieties with significant effects are further screened out from them, to select a variety of which the root exudate has a significant inhibitory effect and a variety of which the root exudate has an effect opposite to the former, and then they are subjected to GC/MS identification for components thereof. By component comparison of the two varieties, syringic acid (4-Hydroxy 3,5-dimethoxybenzoic acid, with the molecular weight of 198.18) is identified in the root exudate of the rice variety Wuyunjing 7 having a significant inhibitory effect.

Compound	inhibition rate (nitrification inhibition effect on Nitrosomonas stercoris) ([1]; 1,9-decanediol plus 10 μg·mL^−1 of syringic acid)	inhibition rate (nitrification inhibition effect on Nitrosomonas stercoris) ([1]; 1,9-decanediol plus 100 μg·mL^−1 of syringic acid)	inhibition rate (nitrification inhibition effect on Nitrosomonas stercoris) ([1]; 1,9-decanediol plus 500 μg·mL^−1 of syringic acid)	inhibition rate (nitrification inhibition effect on Nitrosomonas stercoris) ([1]; 1,9-decanediol without syringic acid)	inhibition rate for the nitrosification process of Nitrosomonas europaea ([2]; 1,9-decanediol added alone)	nitrification inhibition rate ([2]; 1,9-decanediol plus syringic acid at 10 μ·mL^−1)	nitrification inhibition rate ([2]; 1,9-decanediol plus syringic acid at 100 μ·mL^−1)	nitrification inhibition rate ([2]; 1,9-decanediol plus syringic acid at 500 μ·mL^−1)	inhibitory activity to the Nitrosomonas (Nitrosomonas; syringic acid alone)	effect concentration for promoting the inhibition of 1,9-decanediol to the nitrosification activity of the Nitrosomonas (Nitrosomonas; syringic acid combined with 1,9-decanediol)
CC(O)CCCCCCCCO (stereo not shown) [1,9-decanediol]	60.5%	70.2%	89.9%	51.5%	41.2%	51.7%	61.1%	69.2%	–	–
COc1cc(C(=O)O)cc(OC)c1O [syringic acid, 4-Hydroxy 3,5-dimethoxybenzoic acid]	–	–	–	–	–	–	–	–	no significant inhibitory activity	10 to 500 µg/mL
